{"source": "patent US10952433B2", "about": "“Solutions for enhancing the effectiveness of insecticides and fungicides on living plants and related methods” (priority 2015, dated 2021)", "key": {"[1]": {"system": "lepidopteran larvae: cabbage loopers (Trichoplusia ni) and beet armyworms (Spodoptera exigua)", "assay_type": "in vivo", "conditions": "plants", "procedure,_shortened": "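Romaine lettuce plants 2-3 inches tall were sprayed with 10 mL of insecticide (ppm) with buffer, amine oxide or buffered amine oxide at 200:1, then infested with 15 T. ni and 15 S. exigua larvae (5th-6th instar) per container. Leaf surface damage scored visually in 5% increments after 24 h.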"}, "Gypsy Moth Catepillar": {"system": "Gypsy Moth Catepillar", "test": "Gypsy moth caterpillar damage to white oak seedlings after hand spray (Table 5)", "assay_type": "in vivo, gypsy moth (on white oak seedlings)", "protocol": "The particular solutions tested were applied to a stem of the white oak seedling using a low volume hand spray and spraying 20 milliliters per seedling. A total of 20 seedlings were tested. […] At permethrin concentration of 50 ppm, the damage after one month was 30% and with 100 ppm used alone, the damage was 0. When buffered amine oxide system No. 3 was employed in concentrations of 400:1 with 10 ppm of the insecticide, the gypsy moth caterpillar damage was 10% and when a concentration of 200:1 was employed with 10 ppm insecticide, the damage was 0."}, "[2]": {"system": "lepidopteran larvae: cabbage loopers (Trichoplusia ni) and beet armyworms (Spodoptera exigua)", "assay_type": "in vivo", "conditions": "leaf discs", "procedure,_shortened": "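Romaine lettuce leaf discs (⅝ inch) dipped about one second in treatment solution and infested with four cabbage loopers and four beet armyworms (3rd-4th instar) per container. Held dark at 15 °C, 80% RH; percent disc-area damage scored visually in 5% increments at 24, 48 and 72 h.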"}, "[3]": {"conditions": "insecticide + CO3 buffer 200:1, no amine oxide, PPM: Chlorantranilopril 60, Acephate 70, Methoxyfenozide 100, Spinosad 30, Permethrin 10, Indoxacarb 50"}, "[4]": {"conditions": "insecticide + PO4 buffer 200:1, no amine oxide, PPM: Chlorantranilopril 60, Acephate 70, Methoxyfenozide 100, Spinosad 30, Permethrin 10, Indoxacarb 50"}, "[5]": {"conditions": "insecticide + amine oxide 12, no buffer, 200:1, PPM: Chlorantranilopril 60, Acephate 70, Methoxyfenozide 100, Spinosad 30, Permethrin 10, Indoxacarb 50"}, "[6]": {"conditions": "insecticide + amine oxide 1218, no buffer, 200:1, PPM: Chlorantranilopril 60, Acephate 70, Methoxyfenozide 100, Spinosad 30, Permethrin 10, Indoxacarb 50"}, "[7]": {"conditions": "insecticide + buffered amine oxide system CO3, 12, 200:1, PPM: Chlorantranilopril 60, Acephate 70, Methoxyfenozide 100, Spinosad 30, Permethrin 10, Indoxacarb 50"}, "[8]": {"conditions": "insecticide + buffered amine oxide system CO3, 1218, 200:1, PPM: Chlorantranilopril 60, Acephate 70, Methoxyfenozide 100, Spinosad 30, Permethrin 10, Indoxacarb 50"}, "[9]": {"conditions": "insecticide + buffered amine oxide system PO4, 12, 200:1, PPM: Chlorantranilopril 60, Acephate 70, Methoxyfenozide 100, Spinosad 30, Permethrin 10, Indoxacarb 50"}, "[10]": {"conditions": "insecticide + buffered amine oxide system PO4, 1218, 200:1, PPM: Chlorantranilopril 60, Acephate 70, Methoxyfenozide 100, Spinosad 30, Permethrin 10, Indoxacarb 50"}, "[11]": {"conditions": "insecticide alone, highest, PPM: Chlorantranilopril 120, Acephate 140, Methoxyfenozide 200, Spinosad 60, Permethrin 20, Indoxacarb 100"}, "[12]": {"conditions": "insecticide alone, increased, PPM: Chlorantranilopril 90, Acephate 105, Methoxyfenozide 150, Spinosad 45, Permethrin 15, Indoxacarb 75"}, "[13]": {"conditions": "insecticide alone, PPM: Chlorantranilopril 60, Acephate 70, Methoxyfenozide 100, Spinosad 30, Permethrin 10, Indoxacarb 50"}}, "note": "Like-named read-outs stand apart in the source and are kept apart here.", "data": [{"smiles": "CC1(C)C(C=C(Cl)Cl)C1C(=O)OCc1cccc(Oc2ccccc2)c1", "note": "(stereo not drawn) [Permethrin]", "values": [{"measurement": "Percent Lepidopteran Damage to Romaine Lettuce 24 hr", "setting": "[1]; [3]", "value": 80.5, "unit": "%"}, {"measurement": "Percent Lepidopteran Damage to Romaine Lettuce 24 hr", "setting": "[1]; [4]", "value": 83.0, "unit": "%"}, {"measurement": "Percent Lepidopteran Damage to Romaine Lettuce 24 hr", "setting": "[1]; [5]", "value": 77.5, "unit": "%"}, {"measurement": "Percent Lepidopteran Damage to Romaine Lettuce 24 hr", "setting": "[1]; [6]", "value": 72.0, "unit": "%"}, {"measurement": "Percent Lepidopteran Damage to Romaine Lettuce 24 hr", "setting": "[1]; [7]", "value": 22.5, "unit": "%"}, {"measurement": "Percent Lepidopteran Damage to Romaine Lettuce 24 hr", "setting": "[1]; [8]", "value": 28.0, "unit": "%"}, {"measurement": "Percent Lepidopteran Damage to Romaine Lettuce 24 hr", "setting": "[1]; [9]", "value": 24.0, "unit": "%"}, {"measurement": "Percent Lepidopteran Damage to Romaine Lettuce 24 hr", "setting": "[1]; [10]", "value": 21.0, "unit": "%"}, {"measurement": "Percent Lepidopteran Damage to Romaine Lettuce 24 hr", "setting": "[1]; [11]", "value": 90.0, "unit": "%"}, {"measurement": "Percent Lepidopteran Damage to Romaine Lettuce 24 hr", "setting": "[1]; [12]", "value": 78.0, "unit": "%"}, {"measurement": "Percent Lepidopteran Damage to Romaine Lettuce 24 hr", "setting": "[1]; [13]", "value": 77.0, "unit": "%"}, {"measurement": "Percent Gypsy Moth Catepillar Damage to White Oak 1 Month After Application", "setting": "Gypsy Moth Catepillar; Permethrin 10 PPM + buffered amine oxide system 3, amine oxide 12, 200:1", "value": 0, "unit": "%"}, {"measurement": "Percent Gypsy Moth Catepillar Damage to White Oak 1 Month After Application", "setting": "Gypsy Moth Catepillar; Permethrin 10 PPM + buffered amine oxide system 3, amine oxide 12, 400:1", "value": 10, "unit": "%"}, {"measurement": "Percent Gypsy Moth Catepillar Damage to White Oak 1 Month After Application", "setting": "Gypsy Moth Catepillar; Permethrin 10 PPM + buffered amine oxide system 4, amine oxide 12, 200:1", "value": 0, "unit": "%"}, {"measurement": "Percent Gypsy Moth Catepillar Damage to White Oak 1 Month After Application", "setting": "Gypsy Moth Catepillar; Permethrin 10 PPM + buffered amine oxide system 4, amine oxide 12, 400:1", "value": 10, "unit": "%"}, {"measurement": "Percent Gypsy Moth Catepillar Damage to White Oak 1 Month After Application", "setting": "Gypsy Moth Catepillar; Permethrin 10 PPM alone", "value": 80, "unit": "%"}, {"measurement": "Percent Gypsy Moth Catepillar Damage to White Oak 1 Month After Application", "setting": "Gypsy Moth Catepillar; Permethrin 50 PPM alone", "value": 30, "unit": "%"}, {"measurement": "Percent Gypsy Moth Catepillar Damage to White Oak 1 Month After Application", "setting": "Gypsy Moth Catepillar; Permethrin 100 PPM alone", "value": 0, "unit": "%"}, {"measurement": "Percent Lepidopteran Damage to Romaine Lettuce 24 hr", "setting": "[2]; [3]", "value": 53.5, "unit": "%"}, {"measurement": "Percent Lepidopteran Damage to Romaine Lettuce 24 hr", "setting": "[2]; [4]", "value": 28.5, "unit": "%"}, {"measurement": "Percent Lepidopteran Damage to Romaine Lettuce 24 hr", "setting": "[2]; [5]", "value": 17.0, "unit": "%"}, {"measurement": "Percent Lepidopteran Damage to Romaine Lettuce 24 hr", "setting": "[2]; [6]", "value": 24.0, "unit": "%"}, {"measurement": "Percent Lepidopteran Damage to Romaine Lettuce 24 hr", "setting": "[2]; [7]", "value": 23.5, "unit": "%"}, {"measurement": "Percent Lepidopteran Damage to Romaine Lettuce 24 hr", "setting": "[2]; [8]", "value": 2.0, "unit": "%"}, {"measurement": "Percent Lepidopteran Damage to Romaine Lettuce 24 hr", "setting": "[2]; [9]", "value": 3.0, "unit": "%"}, {"measurement": "Percent Lepidopteran Damage to Romaine Lettuce 24 hr", "setting": "[2]; [10]", "value": 1.5, "unit": "%"}, {"measurement": "Percent Lepidopteran Damage to Romaine Lettuce 24 hr", "setting": "[2]; [11]", "value": 1.5, "unit": "%"}, {"measurement": "Percent Lepidopteran Damage to Romaine Lettuce 24 hr", "setting": "[2]; [12]", "value": 0.0, "unit": "%"}, {"measurement": "Percent Lepidopteran Damage to Romaine Lettuce 24 hr", "setting": "[2]; [13]", "value": 85.5, "unit": "%"}, {"measurement": "Percent Lepidopteran Damage to Romaine Lettuce 48 hr", "setting": "[2]; [3]", "value": 97.5, "unit": "%"}, {"measurement": "Percent Lepidopteran Damage to Romaine Lettuce 48 hr", "setting": "[2]; [4]", "value": 79.0, "unit": "%"}, {"measurement": "Percent Lepidopteran Damage to Romaine Lettuce 48 hr", "setting": "[2]; [5]", "value": 60.0, "unit": "%"}, {"measurement": "Percent Lepidopteran Damage to Romaine Lettuce 48 hr", "setting": "[2]; [6]", "value": 95.0, "unit": "%"}, {"measurement": "Percent Lepidopteran Damage to Romaine Lettuce 48 hr", "setting": "[2]; [7]", "value": 67.0, "unit": "%"}, {"measurement": "Percent Lepidopteran Damage to Romaine Lettuce 48 hr", "setting": "[2]; [8]", "value": 4.5, "unit": "%"}, {"measurement": "Percent Lepidopteran Damage to Romaine Lettuce 48 hr", "setting": "[2]; [9]", "value": 10.5, "unit": "%"}, {"measurement": "Percent Lepidopteran Damage to Romaine Lettuce 48 hr", "setting": "[2]; [10]", "value": 3.0, "unit": "%"}, {"measurement": "Percent Lepidopteran Damage to Romaine Lettuce 48 hr", "setting": "[2]; [11]", "value": 4.0, "unit": "%"}, {"measurement": "Percent Lepidopteran Damage to Romaine Lettuce 48 hr", "setting": "[2]; [12]", "value": 0.5, "unit": "%"}, {"measurement": "Percent Lepidopteran Damage to Romaine Lettuce 48 hr", "setting": "[2]; [13]", "value": 100.0, "unit": "%"}, {"measurement": "Percent Lepidopteran Damage to Romaine Lettuce 72 hr", "setting": "[2]; [3]", "value": 100.0, "unit": "%"}, {"measurement": "Percent Lepidopteran Damage to Romaine Lettuce 72 hr", "setting": "[2]; [4]", "value": 100.0, "unit": "%"}, {"measurement": "Percent Lepidopteran Damage to Romaine Lettuce 72 hr", "setting": "[2]; [5]", "value": 89.0, "unit": "%"}, {"measurement": "Percent Lepidopteran Damage to Romaine Lettuce 72 hr", "setting": "[2]; [6]", "value": 100.0, "unit": "%"}, {"measurement": "Percent Lepidopteran Damage to Romaine Lettuce 72 hr", "setting": "[2]; [7]", "value": 91.0, "unit": "%"}, {"measurement": "Percent Lepidopteran Damage to Romaine Lettuce 72 hr", "setting": "[2]; [8]", "value": 5.0, "unit": "%"}, {"measurement": "Percent Lepidopteran Damage to Romaine Lettuce 72 hr", "setting": "[2]; [9]", "value": 21.0, "unit": "%"}, {"measurement": "Percent Lepidopteran Damage to Romaine Lettuce 72 hr", "setting": "[2]; [10]", "value": 3.0, "unit": "%"}, {"measurement": "Percent Lepidopteran Damage to Romaine Lettuce 72 hr", "setting": "[2]; [11]", "value": 4.5, "unit": "%"}, {"measurement": "Percent Lepidopteran Damage to Romaine Lettuce 72 hr", "setting": "[2]; [12]", "value": 0.5, "unit": "%"}, {"measurement": "Percent Lepidopteran Damage to Romaine Lettuce 72 hr", "setting": "[2]; [13]", "value": 100.0, "unit": "%"}]}]}
